Data on nine molecules can be found in publication PMC2790607, “Finding of the Low Molecular Weight Inhibitors of Resuscitation Promoting Factor Enzymatic and Resuscitation Activity” (PLoS ONE, 2009).

In data set [1] the target is T1, Rpf Sm (Micrococcus luteus, UniProt O86308).
T1 construct: His-tag (inferred from the pET19b vector and the Ni2+-chelation purification); made in house; host or cells: E. coli HSM174 (DE3)
In words: Muralytic activity of Rpf, 4-MUF-3-NAG hydrolysis. It is filed as biochemical, M. luteus. How it is done:
The truncated form of M.luteus Rpf (RpfSm) was used for the analysis. The truncated protein contained conserved Rpf domain and additional 20 amino acids of the gene product, corresponding to the following amino acid sequence:
To determine a muralytic activity of the recombinant Rpfs', 4-methylumbelliferyl-β-D-N, N′, N″-triacetylchitotrioside (4-MUF-3-NAG) (“Sigma”, Germany) was applied. […] A number of experiments were performed in the presence of NPT compounds, in concentration range of 0.5–10 µg/ml. After 3 hours of incubation at 37°C, 2 µl of 10 M NaOH was added and the samples were frozen and kept at −20°C. […] The intensity of fluorescence was detected by the RF-5301PC fluorimeter (“SHIMADZU”, Japan) using excitation wavelength of 364 nm and a read-out of 448 nm.

Data set [2] deals with M. tuberculosis "non-culturable" cells. It is filed as cell-based, Mycobacterium tuberculosis. The note with it: for effect on resuscitation of M. tuberculosis "non-culturable" cells: 10 µg/ml, MPN assay, versus untreated resuscitating cells; for MPN, logarithmic transformation of cell concentration (cells/ml): inhibitor 10 µg/ml.
The subject of data set [3] is Micrococcus luteus. The data set can be described thus: microbe, parasite or virus in culture. It is filed as cell-based. The note with it: for effect on M. luteus growth: NB liquid medium; for MIC: Micrococcus luteus, lowest concentration which suppresses growth, determined during 24 hours, NI = no inhibition was observed.
In data set [4] the test system is M. smegmatis "non-culturable" cells. It is filed as cell-based, Mycobacterium smegmatis. The note with it: MPN assay.
The subject of data set [5] is M. smegmatis. The class given is cell-based, Mycobacterium smegmatis. The note with it: at 0.1–1 µg/ml (not shown).
The target of data set [6] is ΔDUFRpf B (Mycobacterium tuberculosis, UniProt P9WG29). The class given is binding, M. tuberculosis.
Chain of ΔDUFRpf B (P9WG29 whole entry, looked up, stated change not applied): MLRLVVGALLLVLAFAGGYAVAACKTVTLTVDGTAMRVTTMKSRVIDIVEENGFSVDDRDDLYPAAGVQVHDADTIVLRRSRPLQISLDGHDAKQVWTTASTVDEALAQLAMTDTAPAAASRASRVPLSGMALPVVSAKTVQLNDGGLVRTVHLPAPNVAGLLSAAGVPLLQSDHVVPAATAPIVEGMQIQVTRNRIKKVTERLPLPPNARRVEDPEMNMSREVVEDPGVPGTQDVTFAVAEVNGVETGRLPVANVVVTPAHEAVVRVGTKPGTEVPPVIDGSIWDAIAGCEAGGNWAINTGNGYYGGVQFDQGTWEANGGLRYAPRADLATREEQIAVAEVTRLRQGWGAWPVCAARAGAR
The mark [7] stands for this setting: pH 6.0, 3 hours at 37°C, NI = no inhibition was observed, read-out: 4-MUF-3-NAG hydrolysis IC50, Rpf Sm (converted).

Converted amounts (≈) assume the structure as drawn. Read-outs that look alike come from different tables or passages of the source.

T1 sequence (O86308 42-134): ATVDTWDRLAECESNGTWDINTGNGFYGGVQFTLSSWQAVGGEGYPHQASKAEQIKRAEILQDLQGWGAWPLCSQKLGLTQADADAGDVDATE

In the case of `COc1ncnc(SC#N)c1[N+](=O)[O-]` [I, 4-Methoxy-5-nitro-6-thiocyanatopyrimidine], the melting point (in general, the temperature, or range, at which the solid turns liquid) is 54 to 56 °C. The 50% inhibitory concentration (IC50) – broadly, the concentration at which inhibition is half-maximal – in data set [1] (setting [7]) is 25 µM. Further, in data set [2], the “effect on resuscitation of M. tuberculosis "non-culturable" cells” value was “had no influence on the resuscitation kinetics”.

Consider `CC(C)Nc1ncnc(SC#N)c1[N+](=O)[O-]` [II, 4-Isopropylamino-5-nitro-6-thiocyanatopyrimidine], for which the melting point was in the range of 96 to 98 °C. The “effect on M. luteus growth” value in data set [3] is on record as “had no effect on M. luteus growth”.

Take `N#CSc1ccc(C(F)(F)F)cc1[N+](=O)[O-]` [IV, 2-Nitro-4-(trifluoromethyl)-phenylthiocyanate]: the melting point fell in the range of 78 to 81 °C. This molecule also showed an MIC in data set [3] of 5 µg/mL (≈ 20.1 µM). Further, the IC50 in data set [1] (setting [7]) was 21.4 µM. Besides, the “concentrations active in suppressing resuscitation of M. smegmatis” value in data set [4] was 0.1 to 1 µg/mL. Further, in data set [2], the “effect on resuscitation of M. tuberculosis "non-culturable" cells” value was “increased time which need for developing of visible growth in the MPN assay and decreased the final values of MPN”. Moreover, the “MPN, logarithmic transformation of cell concentration (cells/ml)” value (“MPN, logarithmic transformation” below) in data set [2] (time 0 days) is reported as 3.48. The “MPN, logarithmic transformation” value in data set [2] (time 14 days) is 3.48. Also, the “MPN, logarithmic transformation” value in data set [2] (time 19 days) is 3.56. The “MPN, logarithmic transformation” value in data set [2] (time 21 days) turned out to be 3.96. For the same molecule, in data set [2] (time 23 days), the “MPN, logarithmic transformation” value is 4.36. For the same molecule, in data set [2] (time 27 days), the “MPN, logarithmic transformation” value is listed as 5.38. In addition, the “MPN, logarithmic transformation” value in data set [2] (time 30 days) was 5.66. Moreover, in data set [2] (time 33 days), the “MPN, logarithmic transformation” value was 5.66. Moreover, in data set [2] (time 36 days), the “MPN, logarithmic transformation” value is reported as 5.66. The “MPN, logarithmic transformation” value in data set [2] (time 40 days) came out at 5.66. Further, the “growth of active cells of M. smegmatis” value in data set [5] is “did not inhibit growth”.

On to `COC(=O)c1ccc(SC#N)c([N+](=O)[O-])c1` [IX, 3-Nitro-4-thiocyanatobenzoic acid methyl ester], for which the MIC in data set [3] lay in the range of 5 to 10 µg/mL (≈ 21 to 42 µM). In data set [1], this molecule gave an IC50 of 23.5 µM. Moreover, in data set [4], the “concentrations active in suppressing resuscitation of M. smegmatis” value is 0.1 to 1 µg/mL. Also, in data set [2], the “effect on resuscitation of M. tuberculosis "non-culturable" cells” value was “increased time which need for developing of visible growth in the MPN assay and decreased the final values of MPN”. The “MPN, logarithmic transformation” value in data set [2] (time 0 days) is 3.48; in data set [2] (time 14 days) it was 3.48; in data set [2] (time 19 days), 3.48; in data set [2] (time 21 days), 3.56; in data set [2] (time 23 days), 3.96; in data set [2] (time 27 days), 4.32. Also, the “MPN, logarithmic transformation” value in data set [2] (time 30 days), in data set [2] (time 33 days), in data set [2] (time 36 days) and in data set [2] (time 40 days) was 5.66 in each case. The “growth of active cells of M. smegmatis” value in data set [5] is recorded as “did not inhibit growth”.

Regarding `N#CSc1ccc(C#N)cc1[N+](=O)[O-]` [V, 3-Nitro-4-thiocyanobenzonitryl], the melting point lay within 143 to 145 °C. This molecule registered an MIC in data set [3] of 1 to 5 µg/mL (≈ 4.87 to 24.4 µM). This molecule had an IC50 in data set [1] of 25.3 µM. For the same molecule, the “MPN, logarithmic transformation” value in data set [2] (time 0 days) was 3.48. Moreover, in data set [2] (time 14 days), the “MPN, logarithmic transformation” value turned out to be 3.48. For the same molecule, the “MPN, logarithmic transformation” value in data set [2] (time 19 days) was found to be 3.48. In addition, the “MPN, logarithmic transformation” value in data set [2] (time 21 days) amounted to 3.48. Moreover, the “MPN, logarithmic transformation” value in data set [2] (time 23 days) was determined as 3.48. The “MPN, logarithmic transformation” value in data set [2] (time 27 days) is 3.86. Further, in data set [2] (time 30 days), the “MPN, logarithmic transformation” value came out at 4.30. Moreover, the “MPN, logarithmic transformation” value in data set [2] (time 33 days) is recorded as 5.66. In addition, the “MPN, logarithmic transformation” value in data set [2] (time 36 days) is 5.66. For the same molecule, the “MPN, logarithmic transformation” value in data set [2] (time 40 days) came to 5.66.

As to `CC(=O)c1ccc(SC#N)c([N+](=O)[O-])c1` [VI, 4-Acetyl-2-nitrophenyl thiocyanate], the melting point lay within 96 to 98 °C. The MIC in data set [3] was 5 µg/mL (≈ 22.5 µM). Further, half-maximal inhibition in data set [1] (IC50) required 9.9 µM. The “MPN, logarithmic transformation” value in data set [2] (time 0 days) is reported as 3.48. Further, the “MPN, logarithmic transformation” value in data set [2] (time 14 days) is reported as 3.48. Further, the “MPN, logarithmic transformation” value in data set [2] (time 19 days) worked out at 3.48. In addition, the “MPN, logarithmic transformation” value in data set [2] (time 21 days) is 3.48. Besides, the “MPN, logarithmic transformation” value in data set [2] (time 23 days) was found to be 3.56. In addition, in data set [2] (time 27 days), the “MPN, logarithmic transformation” value is listed as 3.96. In addition, the “MPN, logarithmic transformation” value in data set [2] (time 30 days) is 4.66. The “MPN, logarithmic transformation” value in data set [2] (time 33 days) was 5.38. Also, in data set [2] (time 36 days), the “MPN, logarithmic transformation” value is 5.97. The “MPN, logarithmic transformation” value in data set [2] (time 40 days) amounted to 6.18.

For `N#CSc1ccc(C(=O)O)cc1[N+](=O)[O-]` [VIII, 3-Nitro-4-thiocyanatobenzoic acid], the melting point lay within 220 to 224 °C. The “effect on M. luteus growth” value in data set [3] is recorded as “had no effect on M. luteus growth”. Besides, the “interaction with the buried tryptophanes of ΔDUFRpfB” value in data set [6] (fluorescence studies) is “doesn't interact with the buried tryptophanes”. In addition, the “effect on resuscitation of M. smegmatis "non-culturable" cells” value in data set [4] (inhibitors at 1 µg/ml, 2 weeks at 37°C) is given as “failure”. Further, the “effect on resuscitation of M. tuberculosis "non-culturable" cells” value in data set [2] is on record as “had no influence on the resuscitation kinetics”.

`CCOC(=O)c1ccc(SC#N)c([N+](=O)[O-])c1` [X, 3-nitro-4-thiocyanatobenzoic acid ethyl ester]: the MIC in data set [3] stood at 10 µg/mL (≈ 39.6 µM). Also, the IC50 in data set [1] (setting [7]) is 10.3 µM. Moreover, the “effect on resuscitation of M. tuberculosis "non-culturable" cells” value in data set [2] is “increased time which need for developing of visible growth in the MPN assay and decreased the final values of MPN”. Moreover, the “MPN, logarithmic transformation” value is 3.48 in data set [2] (time 0 days); 3.48 in data set [2] (time 14 days); 3.48 in data set [2] (time 19 days); 3.48 in data set [2] (time 21 days); 3.48 in data set [2] (time 23 days); 4.36 in data set [2] (time 27 days). Also, the “MPN, logarithmic transformation” value in data set [2] (time 30 days) is recorded as 4.97; in data set [2] (time 33 days), 5.38; in data set [2] (time 36 days), 5.38; in data set [2] (time 40 days) it was 5.38.

Take `[I-].[K+]` [iodide, reference compound]: in data set [6] (modified Stern-Volmer equation, excitation 280 nm, emission 340 nm), the “accessible fraction of ΔDUFRpfB tryptophanes (fa)” value is listed as around 40%.
